Measured values as given in patent US12194140B2, “Compositions for topical treatment of microbial infections” (Hennepin Life Sciences, priority 2012, dated 2025).

Columns and labels:
Streptococcus agalactiae [1] = assay: GML in vegetable oil, growth in Todd Hewitt broth (CFU/mL); assay type: cell-based; settings: GML in olive, palm or corn oil (all 3); 18 hours, 37° C.
S. aureus strain MN8 = assay: Decolonization of contaminated surgical incision sites; assay type: in vivo, New Zealand white rabbits; settings: GML 5% w/v non-aqueous gel swabbed
E. coli (Watson strain) = assay: GML and EDTA on the growth of E. coli; assay type: cell-based; settings: 24 hours; EDTA 0.05 M to 0.00005 M; GML 100 μg/mL
Experimental: E. coli (Watson strain) was adjusted to I.2×10^7/mL in Todd Hewitt media. […] Cultures were incubated with shaking (200 RPM) for 24 hours, at which time samples were removed for plate counting. To further assess the combined effects of GML and EDTA, the experiment was carried out as above, and the relative effects on the growth of E. coli of EDTA alone or the combination of GML and EDTA were assessed in direct comparison to GML alone.

S. aureus (strain MN8) = assay: Effect of non-aqueous gel on antimicrobial activity of GML; assay type: cell-based; settings: GML alone in Todd Hewitt broth; 24 hours
[2] = system: S. aureus strains MN8, MNWH, MW2; assay: Biofilm formation in 96 well microtiter plates; assay type: cell-based
Neisseria gonorrhoeae = assay: Spectrum of antibacterial activity of GML; assay type: cell-based; settings: optimal growth conditions; 1 strain tested
[3] = system: coagulase-negative staphylococci; assay: Decolonization of anterior nares; assay type: in vivo, human; settings: 5% w/v GML in non-aqueous gel
Listeria monocytogenes = assay: Spectrum of antibacterial activity of GML; assay type: cell-based; settings: optimal growth conditions; 1 strain tested
[4] = system: Mycobacterium tuberculosis; assay type: cell-based
[5] = system: Peptostreptococcus species; assay: Spectrum of antibacterial activity of GML; assay type: cell-based; settings: optimal growth conditions; 1 strain tested
Bacteroides fragilis = assay: Spectrum of antibacterial activity of GML; assay type: cell-based; settings: optimal growth conditions; 2 strains tested
Fusobacterium species = assay: Spectrum of antibacterial activity of GML; assay type: cell-based; settings: optimal growth conditions; 1 strain tested
Streptococcus agalactiae [6] = assay: Spectrum of antibacterial activity of GML; assay type: cell-based; settings: optimal growth conditions; 3 strains tested
Group F Streptococcus = assay: Spectrum of antibacterial activity of GML; assay type: cell-based; settings: optimal growth conditions; 1 strain tested
S. aureus MN8 [7] = assay: Antibacterial activity of GML after pre-treatment with sterile culture fluid; assay type: cell-based; settings: 24 hour assay
Bacillus cereus = assay: Spectrum of antibacterial activity of GML; assay type: cell-based; settings: optimal growth conditions; 1 strain tested
S. aureus = assay: Decolonization of anterior nares; assay type: in vivo, human; settings: 5% w/v GML in non-aqueous gel
Experimental: A study was undertaken to assess the ability of GML (5% w/v), formulated in a non-aqueous gel, to decolonize the respiratory tract in humans, and to decolonize contaminated surgical incision sites in experimental rabbits.
Three human subjects underwent swabs of the anterior nares in order to assess whether GML was capable of decolonizing the respiratory tract. […] The swabs were rotated around each nare up to the nasal bone 3 times. Colony-forming units of microbes from swabs were determined by plate counts on blood agar and mannitol salt agar. The anterior nares were then treated in the same way with swabs that had been dipped one time in GML gel. The anterior nares of each participant were swabbed at designated time periods for up to 24 hours, and swabs were cultured for S. aureus and coagulase-negative staphylococci.

Enterococcus faecalis = assay: Spectrum of antibacterial activity of GML; assay type: cell-based; settings: optimal growth conditions; 1 strain tested
Gardnerella vaginalis [8] = assay: GML in vegetable oil, growth in Todd Hewitt broth (CFU/mL); assay type: cell-based; settings: GML in olive, 18 hours, 37° C.
Group C Streptococcus = assay: Spectrum of antibacterial activity of GML; assay type: cell-based; settings: optimal growth conditions; 1 strain tested
[9] = system: non-typable Haemophilus influenzae; assay type: cell-based
S. aureus MN8 [10] = assay: Bactericidal activity of GML versus lauric acid; assay type: cell-based; settings: 24 hours, 37° C.; bactericidal = at least 3 log reduction
Streptococcus pyogenes = assay: Spectrum of antibacterial activity of GML; assay type: cell-based; settings: optimal growth conditions; 4 strains tested
S. aureus 128 (TSST-1) = assay type: cell-based
Mycoplasma hominis = assay: Spectrum of antibacterial activity of GML; assay type: cell-based; settings: optimal growth conditions; 1 strain tested
Proteus vulgaris = assay: Spectrum of antibacterial activity of GML; assay type: cell-based; settings: optimal growth conditions; 1 strain tested
Gardnerella vaginalis [11] = assay: Spectrum of antibacterial activity of GML; assay type: cell-based; settings: optimal growth conditions; 2 strains tested
Mycobacterial species = assay type: cell-based
[12] = system: Prevotella melaninogenica; assay: Spectrum of antibacterial activity of GML; assay type: cell-based; settings: optimal growth conditions; 1 strain tested
[13] = system: Staphylococcus aureus MNPE (methicillin sensitive) and MW2 (methicillin resistant); assay: GML in vegetable oil, growth in Todd Hewitt broth (CFU/mL); assay type: cell-based; settings: both strains; GML in olive, palm or corn oil (all 3); 18 hours, 37° C.
Haemophilus influenzae = assay: Effect of pH on GML activity; assay type: cell-based; settings: 1 μg/mL GML
Experimental: A similar experiment was carried out to assess the effect of GML on the growth of Haemophilus influenzae at various pHs. 1 μg/mL GML had no effect on the growth of H. influenzae at a pH of 7.0 (FIG. 13).

Streptococcus suis = assay: Spectrum of antibacterial activity of GML; assay type: cell-based; settings: optimal growth conditions; 1 strain tested
Salmonella minnesota = assay: Spectrum of antibacterial activity of GML; assay type: cell-based; settings: optimal growth conditions; 1 strain tested
Mycobacterium phlei = assay: Spectrum of antibacterial activity of GML; assay type: cell-based; settings: optimal growth conditions; 1 strain tested

Glycerol monolaurate [GML]
GML concentration at which growth was completely or nearly completely inhibited (Streptococcus agalactiae [1]): ≥ 20 µg/mL | S. aureus CFU/mL at surgical incision sites (S. aureus strain MN8; 24 hour time-point, PBS control 8.8 log CFU/mL): no CPUs were detectable | inflammation at the surgical site (redness) (S. aureus strain MN8; 24 hours, versus PBS): less inflammation | anti-bacterial activity on growth of E. coli (CFU/mL) (E. coli (Watson strain)): did not exhibit any bactericidal activity | GML concentration inhibiting growth (CFU/mL) (S. aureus (strain MN8)): ≥ 100 µg/mL | fold lower GML concentration inhibiting biofilm formation (crystal violet, absorbance 595 nm) than necessary to inhibit bacterial growth ([2]; 24 or 48 hours): 10 fold | GML concentration at which growth was completely inhibited (CFU/mL) ([2]; all three strains, 24 and 48 hours): 500 µg/mL | Average Bactericidal Concentration of GML (Neisseria gonorrhoeae): 20 µg/mL | coagulase-negative staphylococcal counts in both nares after treatment ([3]; swab, three subjects, 4 hours or more up to 24 hour): significantly (p<0.05) reduced | coagulase-negative staphylococci in right nare after 3 days ([3]; one subject, initially 560): 8 CFU/mL | coagulase-negative staphylococci in left nare after 3 days ([3]; one subject, initially 880): 0 CFU/mL | Average Bactericidal Concentration of GML (Listeria monocytogenes): 50 µg/mL | Average Bactericidal Concentration of GML [4]: 100 µg/mL | Average Bactericidal Concentration of GML [5]: 1 µg/mL | Average Bactericidal Concentration of GML (Bacteroides fragilis): 50 µg/mL | Average Bactericidal Concentration of GML (Fusobacterium species): 50 µg/mL | Average Bactericidal Concentration of GML (Streptococcus agalactiae [6]): 30 µg/mL | Average Bactericidal Concentration of GML (Group F Streptococcus): 20 µg/mL | antibacterial activity of GML after pre-incubation (S. aureus MN8 [7]; pre-incubated overnight with sterile culture fluid from S. aureus MN8): eliminated the antibacterial activity | antibacterial activity of GML after pre-incubation (S. aureus MN8 [7]; pre-incubated overnight with sterile culture fluid from S. pyogenes): did not affect | Average Bactericidal Concentration of GML (Bacillus cereus): 50 µg/mL | S. aureus counts in both nares after treatment (S. aureus; swab, three subjects, all time-points up to 24 hour): 0 CFU/mL | S. aureus counts over 3 day test period (S. aureus; one subject): 0 | Average Bactericidal Concentration of GML (Enterococcus faecalis): 100 µg/mL | GML concentration at which growth was completely or nearly completely inhibited (Gardnerella vaginalis [8]; palm or corn oil (all 3)): ≥ 20 µg/mL | GML concentration at which CFU/mL were reduced (Gardnerella vaginalis [8]; palm or corn oil (all three)): ≤ 10 µg/mL | Average Bactericidal Concentration of GML (Group C Streptococcus): 30 µg/mL | GML concentration inhibiting biofilm formation (crystal violet, absorbance 595 nm) [9]: ≤ 1.0 µg/mL | bactericidal GML concentration in the context of a biofilm (CFU/mL) [9]: 50 µg/mL | fold lower bactericidal concentration than lauric acid (S. aureus MN8 [10]): 200 fold | Average Bactericidal Concentration of GML (Streptococcus pyogenes): 30 µg/mL | TSST-1 in tampon sacs (Western immunoblot) (S. aureus 128 (TSST-1)): not detected | Average Bactericidal Concentration of GML (Mycoplasma hominis): 1 µg/mL | Average Bactericidal Concentration of GML (Proteus vulgaris): Not Susceptible | Average Bactericidal Concentration of GML (Gardnerella vaginalis [11]): 10 µg/mL | GML concentration at which organisms were killed (Mycobacterial species): ≥ 50 µg/mL | Average Bactericidal Concentration of GML [12]: 50 µg/mL | GML concentration at which growth was inhibited [13]: 100 µg/mL | effect on growth (CFU/mL) (Haemophilus influenzae; pH 6.0, 4, 8, and 24 hours): completely abrogated the growth | effect on growth (CFU/mL) (Haemophilus influenzae; pH 7.0): no effect | Average Bactericidal Concentration of GML (Streptococcus suis): 50 µg/mL | Average Bactericidal Concentration of GML (Salmonella minnesota): Not Susceptible | Average Bactericidal Concentration of GML (Mycobacterium phlei): 100 µg/mL
